Results reported in US20180100859A1, “SURROGATE FUNCTIONAL BIOMARKER FOR SOLID TUMOR CANCER” (EUTROPICS PHARMACEUTICALS, INC., priority 2015, published 2018).

Experiments:
Type in all cases: cell-based
[1] = biological target: Bcl-xL/Bim heterodimer in SKBR3 breast cancer cells (Homo sapiens, UniProt Q07817); test: Detection of Bcl-xL/Bim heterodimer with ANTI-HSBXB antibody in treated breast cancer cells, LI-COR imager
Experimental: ABT-263 is a pro-apoptotic compound that can be used on whole cells to disrupt BH3 mediated interactions. Disruption of these heterodimers in treated cells is detected as loss of ANTI-HSBXB signal. Here the cells were treated with various concentrations of ABT-263 for 10 hours at 37° C., then rinsed, fixed with 4% PFA, and incubated with ANTI-HSBXB (a Bcl-xL/Bim heterodimer-specific antibody). IRDye 800CW goat anti-mouse antibody was used to detect the heterodimer specific mouse monoclonal antibody, and IRDye 800CW Goat anti-rabbit antibody was used to detect a commercial Bcl-xL rabbit monoclonal antibody. Cell numbers were normalized by using CellTag 700 Stain.

[2] = test system: Molm 13 cells; test: Mitochondrial (BH3) profiling, Bcl-xL priming; conditions: Molm 13 leukemia cell line, FIG. 3
[3] = test system: DHL-6 cells; test: Mitochondrial (BH3) profiling, Bcl-xL priming; conditions: DHL-6 leukemia cell line, compared with Molm 13, FIG. 3
[4] = test system: AHR cells; test: Mitochondrial (BH3) profiling, Bcl-xL priming; conditions: AHR leukemia cell line, FIG. 3
From the text: The Bcl-xL/Bim heterodimer (HSBXB) can be detected by flow cytometry using a method for intracellular staining with the HSBXB antibody. Three leukemia cell lines, AHR, DHL6 and MOLM 13 were chosen based on their having differing amounts of Bcl-xL, Bim priming as determined by mitochondrial profiling. Consequently, the response to the Bcl-xL restricted, the Bcl-xL/Bim dimer “priming”, is known to be present at different amounts. A high signal mediated by Hrk-BH3 peptide indicates the existence of Bcl-xL/Bim heterodimer.
The HSBXB signal was assessed by flow cytometry and compared to the Hrk-BH3 peptide signal in the BH3 profiling assay. Here, AHR, DHL6 and MOLM13 cells were incubated on ice for 3 hours, and then washed and incubated with HSBXB antibody or Bcl-xL antibody at 10 ug/ml for 20 minutes, and then washed and stained with secondary Alexa488-conjugated goat anti-mouse. Signals were corrected to IgG-2A isotype or secondary alone control. The Hrk-BH3 signal in the mitochondrial profiling of the three cell lines was plotted against normalized HSBXB FACS signal.

Chain of Bcl-xL/Bim heterodimer in SKBR3 breast cancer cells (Q07817 whole entry, one chain of several): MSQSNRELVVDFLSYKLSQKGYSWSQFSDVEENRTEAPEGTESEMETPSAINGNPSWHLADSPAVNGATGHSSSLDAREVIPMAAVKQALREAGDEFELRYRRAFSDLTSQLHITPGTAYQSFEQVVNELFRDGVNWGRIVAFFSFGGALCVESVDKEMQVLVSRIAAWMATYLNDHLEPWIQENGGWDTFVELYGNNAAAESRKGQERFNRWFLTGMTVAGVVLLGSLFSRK

Molecule | time window where the disruption can be detected prior to caspase mediated membrane disruption [1] | percent heterodimer specific signal (ANTI-HSBXB detection) ([1]; various concentrations, 10 hours at 37° C., FIG. 2) | degree of Bcl-xL priming relative to positive control [2] | degree of Bcl-xL priming relative to positive control [3] | degree of Bcl-xL priming relative to positive control [4]
CC1(C)CCC(c2ccc(Cl)cc2)=C(CN2CCN(c3ccc(C(=O)NS(=O)(=O)c4ccc(N[C@H](CCN5CCOCC5)CSc5ccccc5)c(S(=O)(=O)C(F)(F)F)c4)cc3)CC2)C1 [ABT-263] | 10 to 12 h | decreasing the quantity of ANTI-HSBXB detection |  |  | 
Hrk-BH3: BH3 peptide HRK, SSAAQLTAARLKALGDELHQ, SEQ ID NO 8; Bcl-xL restricted (listed as Homo sapiens) |  |  | less than 5% | slightly higher | above 60%
